≈ marks a conversion by molar mass, not a printed value.
What was measured:
Format in all cases: cell-based
[1] = tested on: Staphylococcus epidermidis ATCC12228; experiment: MIC, microbroth dilution (NCCLS); conditions: rifS strain, Cation-Adjusted Mueller-Hinton Broth, 37° C., read-out: Antimicrobial activity (MIC)
[2] = tested on: Haemophilus influenzae ATCC10211; experiment: MIC, microbroth dilution (NCCLS); conditions: rifS strain, BHI Broth with NAD and hematin, 37° C., read-out: Antimicrobial activity (MIC)
[3] = tested on: Staphylococcus aureus ATCC29213 rpoB^H418Y; experiment: microbe, parasite or virus in culture; conditions: ATCC29213, read-out: Antimicrobial activity (MIC)
Method: (§1) Representative compounds were assayed for antimicrobial activity as follows: Minimum Inhibitory Concentrations (“MICs”) were determined by the microbroth dilution method as per NCCLS guidelines (National Committee for Clinical Laboratory Standards. 2000. Methods for dilution antimicrobial susceptibility tests for bacteria that grow aerobically, 5th ed. M7-A5. National Committee for Clinical Laboratory Standards, Wayne, Pa.), except that all growth incubations were conducted at 37° C. Bacterial cultures were tested in the following bacteriological media: S. aureus, S. epidermidis, and E. coli in Cation-Adjusted Mueller-Hinton Broth, S. pneumoniae in THY Broth supplemented with 1 mg/mL catalase under 5% CO2 atmosphere, S. pyogenes in THY Broth, E. faecalis in BHI Broth, H. influenzae in BHI Broth supplemented with 0.75 μL of 1 mg/mL NAD and 150 μL of 1 mg/ml hematin per 5 mL, and M. smegmatis in Middlebrook Broth plus ADC Enrichment.
(§2) S. aureus ATCC 29213 RpoB^H418Y is a rifampin-resistant strain with a mutation in RNA polymerase, the biological target of rifamycin antibiotics. […] S. aureus EN1252a gyrA^S84L grlA^S80F is a quinolone-resistant strain due to double mutations to DNA gyrase and topoisomerase IV, the two biological targets for quinolone antibiotics.

[4] = tested on: Staphylococcus aureus EN1252a gyrA^S84L grlA^S80F; experiment: microbe, parasite or virus in culture; conditions: read-out: Antimicrobial activity (MIC)
Method: as §1, §2

[5] = tested on: Staphylococcus aureus ATCC29213 rpoB^D417Y; experiment: microbe, parasite or virus in culture; conditions: ATCC29213, read-out: Antimicrobial activity (MIC)
Method: as §1, §2

[6] = tested on: Mycobacterium smegmatis ATCC700084; experiment: MIC, microbroth dilution (NCCLS); conditions: Mycolicibacterium smegmatis, rifS strain, Middlebrook Broth plus ADC Enrichment, 37° C., read-out: Antimicrobial activity (MIC)
[7] = tested on: Streptococcus pyogenes ATCC19615; experiment: MIC, microbroth dilution (NCCLS); conditions: rifS strain, THY Broth, 37° C., read-out: Antimicrobial activity (MIC)
[8] = tested on: Staphylococcus aureus ATCC29213; experiment: MIC, microbroth dilution (NCCLS); conditions: rifS strain, Cation-Adjusted Mueller-Hinton Broth, 37° C., read-out: Antimicrobial activity (MIC)
[9] = tested on: Escherichia coli ATCC25922; experiment: MIC, microbroth dilution (NCCLS); conditions: rifS strain, Cation-Adjusted Mueller-Hinton Broth, 37° C., read-out: Antimicrobial activity (MIC)
[10] = tested on: Enterococcus faecalis ATCC29212; experiment: MIC, microbroth dilution (NCCLS); conditions: rifS strain, BHI Broth, 37° C., read-out: Antimicrobial activity (MIC)
[11] = tested on: Streptococcus pneumoniae ATCC6303; experiment: MIC, microbroth dilution (NCCLS); conditions: rifS strain, THY Broth with 1 mg/mL catalase, 5% CO2, 37° C., read-out: Antimicrobial activity (MIC)

CO[C@H]1/C=C/O[C@@]2(C)Oc3c(C)c(O)c4c(O)c(c(CN5CCN(c6cc7c(cc6F)c(=O)c(C(=O)O)cn7C6CC6)CC5)c(O)c4c3C2=O)NC(=O)/C(C)=C\C=C\[C@H](C)[C@H](O)[C@@H](C)[C@@H](O)[C@@H](C)[C@H](OC(C)=O)[C@@H]1C [Example 12, 3-[4-[3-Carboxy-1-cyclopropyl-6-fluoro-4-oxo-(1,4-dihydroquinolin-7-yl)]-piperazin-1-ylmethyl]rifamycin SV]
MIC [1]: 0.008 to 0.063 mg/L (≈ 0.00768 to 0.0605 µM) | MIC [2]: 0.125 to 2 mg/L (≈ 0.12 to 1.92 µM) | MIC [3]: 0.06 to 16 mg/L (≈ 0.0576 to 15.4 µM) | MIC [4]: 0.004 to 0.5 mg/L (≈ 0.00384 to 0.48 µM) | MIC [5]: 0.06 to 32 mg/L (≈ 0.0576 to 30.7 µM) | MIC [6]: 0.5 to 64 mg/L | MIC [7]: 0.008 to 0.063 mg/L (≈ 0.00768 to 0.0605 µM) | MIC [8]: 0.004 to 0.5 mg/L (≈ 0.00384 to 0.48 µM) | MIC [9]: 0.125 to 8 mg/L (≈ 0.12 to 7.68 µM) | MIC [10]: 2 to 32 mg/L (≈ 1.92 to 30.7 µM) | MIC [11]: 0.008 to 0.125 mg/L (≈ 0.00768 to 0.12 µM)

CO[C@H]1/C=C/O[C@@]2(C)Oc3c(C)c(O)c4c(O)c(c(CN5CCN(c6nc7c(cc6F)c(=O)c(C(=O)O)cn7-c6ccc(F)cc6F)CC5)c(O)c4c3C2=O)NC(=O)/C(C)=C\C=C\[C@H](C)[C@H](O)[C@@H](C)[C@@H](O)[C@@H](C)[C@H](OC(C)=O)[C@@H]1C [Example 14, 3-[4-[3-carboxy-1-(2,4-Difluoro-phenyl)-6-fluoro-4-oxo-1,4-dihydro-[1,8]naphthyridin-7-yl]piperazin-1-ylmethyl]rifamycin SV]
MIC [1]: 0.008 to 0.063 mg/L (≈ 0.00718 to 0.0565 µM) | MIC [2]: 0.125 to 2 mg/L (≈ 0.112 to 1.8 µM) | MIC [3]: 0.06 to 16 mg/L (≈ 0.0539 to 14.4 µM) | MIC [4]: 0.004 to 0.5 mg/L (≈ 0.00359 to 0.449 µM) | MIC [5]: 0.06 to 32 mg/L (≈ 0.0539 to 28.7 µM) | MIC [6]: 0.5 to 64 mg/L | MIC [7]: 0.008 to 0.063 mg/L (≈ 0.00718 to 0.0565 µM) | MIC [8]: 0.004 to 0.5 mg/L (≈ 0.00359 to 0.449 µM) | MIC [9]: 0.125 to 8 mg/L (≈ 0.112 to 7.18 µM) | MIC [10]: 2 to 32 mg/L (≈ 1.8 to 28.7 µM) | MIC [11]: 0.008 to 0.125 mg/L (≈ 0.00718 to 0.112 µM)

CO[C@H]1/C=C/O[C@@]2(C)Oc3c(C)c(O)c4c(O)c(c(CN[C@@H]5CCN(c6cc7c(cc6F)c(=O)c(C(=O)O)cn7C6CC6)C5)c(O)c4c3C2=O)NC(=O)/C(C)=C\C=C\[C@H](C)[C@H](O)[C@@H](C)[C@@H](O)[C@@H](C)[C@H](OC(C)=O)[C@@H]1C [Example 15, (R)-3-[1-(3-carboxy-1-cyclopropyl-6-fluoro-4-oxo-1,4-dihydroquinolin-7-yl)-pyrrolidinyl-3-aminomethyl]rifamycin SV]
MIC [1]: 0.008 to 0.063 mg/L (≈ 0.00768 to 0.0605 µM) | MIC [2]: 0.125 to 2 mg/L (≈ 0.12 to 1.92 µM) | MIC [3]: 0.06 to 16 mg/L (≈ 0.0576 to 15.4 µM) | MIC [4]: 0.004 to 0.5 mg/L (≈ 0.00384 to 0.48 µM) | MIC [5]: 0.06 to 32 mg/L (≈ 0.0576 to 30.7 µM) | MIC [6]: 0.5 to 64 mg/L | MIC [7]: 0.008 to 0.063 mg/L (≈ 0.00768 to 0.0605 µM) | MIC [8]: 0.004 to 0.5 mg/L (≈ 0.00384 to 0.48 µM) | MIC [9]: 0.125 to 8 mg/L (≈ 0.12 to 7.68 µM) | MIC [10]: 2 to 32 mg/L (≈ 1.92 to 30.7 µM) | MIC [11]: 0.008 to 0.125 mg/L (≈ 0.00768 to 0.12 µM)

CO[C@H]1/C=C/O[C@@]2(C)Oc3c(C)c(O)c4c(O)c(c(CN[C@H]5CCN(c6cc7c(cc6F)c(=O)c(C(=O)O)cn7C6CC6)C5)c(O)c4c3C2=O)NC(=O)/C(C)=C\C=C\[C@H](C)[C@H](O)[C@@H](C)[C@@H](O)[C@@H](C)[C@H](OC(C)=O)[C@@H]1C [Example 16, (S)-3-[1-(3-carboxy-1-cyclopropyl-6-fluoro-4-oxo-1,4-dihydroquinolin-7-yl)-pyrrolidinyl-3-aminomethyl]rifamycin SV]
MIC [1]: 0.008 to 0.063 mg/L (≈ 0.00768 to 0.0605 µM) | MIC [2]: 0.125 to 2 mg/L (≈ 0.12 to 1.92 µM) | MIC [3]: 0.06 to 16 mg/L (≈ 0.0576 to 15.4 µM) | MIC [4]: 0.004 to 0.5 mg/L (≈ 0.00384 to 0.48 µM) | MIC [5]: 0.06 to 32 mg/L (≈ 0.0576 to 30.7 µM) | MIC [6]: 0.5 to 64 mg/L | MIC [7]: 0.008 to 0.063 mg/L (≈ 0.00768 to 0.0605 µM) | MIC [8]: 0.004 to 0.5 mg/L (≈ 0.00384 to 0.48 µM) | MIC [9]: 0.125 to 8 mg/L (≈ 0.12 to 7.68 µM) | MIC [10]: 2 to 32 mg/L (≈ 1.92 to 30.7 µM) | MIC [11]: 0.008 to 0.125 mg/L (≈ 0.00768 to 0.12 µM)

CO[C@H]1/C=C/O[C@@]2(C)Oc3c(C)c(O)c4c(c3C2=O)C(=O)C(N2CCN(c3ccc(N5C[C@H](CNC(C)=O)OC5=O)cc3F)CC2)=C(NC(=O)/C(C)=C\C=C\[C@H](C)[C@H](O)[C@@H](C)[C@@H](O)[C@@H](C)[C@H](OC(C)=O)[C@@H]1C)C4=O [Example 23, (S)-3-[4-[4-(5-Acetylaminomethyl-2-oxo-oxazolidin-3-yl)-2-fluoro-phenyl]-piperazin-1-yl]rifamycin S]
MIC [1]: 0.008 to 0.063 mg/L (≈ 0.00777 to 0.0612 µM) | MIC [2]: 0.125 to 2 mg/L (≈ 0.121 to 1.94 µM) | MIC [3]: 0.06 to 16 mg/L (≈ 0.0582 to 15.5 µM) | MIC [4]: 0.004 to 0.5 mg/L (≈ 0.00388 to 0.485 µM) | MIC [5]: 0.06 to 32 mg/L (≈ 0.0582 to 31.1 µM) | MIC [6]: 0.5 to 64 mg/L | MIC [7]: 0.008 to 0.063 mg/L (≈ 0.00777 to 0.0612 µM) | MIC [8]: 0.004 to 0.5 mg/L (≈ 0.00388 to 0.485 µM) | MIC [9]: 0.125 to 8 mg/L (≈ 0.121 to 7.77 µM) | MIC [10]: 2 to 32 mg/L (≈ 1.94 to 31.1 µM) | MIC [11]: 0.008 to 0.125 mg/L (≈ 0.00777 to 0.121 µM)
